Reference: patent publication EP2289904A1, “Inhibitors of microbial infections” (Universita' degli Studi di Milano, priority 2009, dated 2011)

Assays:
HIV-1 BaL [1] = experiment: trans-infection of CD4+ T lymphocytes by B-THP-1/DC-SIGN cells exposed to virus in continued presence of inhibitor, p24 ELISA
[2] = molecular target: T1, dendritic cell receptor DC-SIGN (Homo sapiens, UniProt Q9NNX6); conditions: Reina et al. 2007; cited from earlier work
T1 sequence (Q9NNX6 1-404): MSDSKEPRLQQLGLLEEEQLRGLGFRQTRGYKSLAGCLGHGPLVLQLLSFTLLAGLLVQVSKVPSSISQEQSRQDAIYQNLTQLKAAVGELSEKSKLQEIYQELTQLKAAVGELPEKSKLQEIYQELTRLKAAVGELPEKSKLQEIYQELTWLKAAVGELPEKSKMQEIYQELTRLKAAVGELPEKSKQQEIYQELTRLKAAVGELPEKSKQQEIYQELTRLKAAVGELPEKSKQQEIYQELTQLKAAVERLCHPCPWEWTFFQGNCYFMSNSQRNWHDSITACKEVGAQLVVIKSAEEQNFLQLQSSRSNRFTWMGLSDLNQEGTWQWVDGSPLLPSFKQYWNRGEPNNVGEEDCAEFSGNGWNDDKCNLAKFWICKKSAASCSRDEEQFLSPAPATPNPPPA

Ebola virus = Ebola virus infection model; Reina et al. 2007; cited from earlier work
HIV-1 BaL [3] = experiment: trans-infection assay, B-THP-1/DC-SIGN cells incubated with inhibitor and washed before adding the virus; conditions: 5 mM, cells washed with buffer before adding virus (BaL); Figure 3

SMILES: OC[C@H]1OC(O)[C@@H](O)[C@@H](O)[C@@H]1O (some centres unmarked) [Man4]
- activity at 100 µM (HIV-1 BaL [1]; Human immunodeficiency virus 1, BAL, CD4+ T, read-out: infection level): ≥ 30%

SMILES: COC(=O)[C@H]1C[C@H](OCCN=[N+]=[N-])[C@@H](O[C@H]2O[C@H](CO)[C@@H](O)[C@H](O)[C@@H]2O)C[C@@H]1C(=O)OC [compound 1]
- binding to DC-SIGN [2]: binds
- anti-infective action (Ebola virus): moderate anti-infective action

SMILES: COC(=O)[C@H]1C[C@H](OC[C@H]2O[C@H](OCCN=[N+]=[N-])[C@@H](O)[C@@H](O)[C@@H]2O)[C@@H](O[C@H]2O[C@H](CO)[C@@H](O)[C@H](O)[C@@H]2O)C[C@@H]1C(=O)OC [compound 2b, α(1,2)α(1,6)pseudomannotriose]
- concentration needed to reach a similar inhibition level, compared with 12 (HIV-1 BaL [1]; HIV-1 BaL, Figure 2): much higher concentration
- antiinfective activity in the trans-infection assay (HIV-1 BaL [3]): no antiinfective activity
